In patent US20160030318A1, “HIGHLY BIOAVAILABLE Na-ACYL ACIDIC AMINO ACID ESTER SALT COMPOSITONS WITH ZWITTERIONIC SURFACTANTS” (JOHNSON & JOHNSON CONSUMER INC., priority 2014, published 2016):

Columns and labels:
[1] = Disc Retention Assay (DRA) for LAE bioavailability; assay type: in vitro ADME
Excerpt: Procedure for Determining Bioavailability
Lanzalaco. Availability Testing of Cetylpyridinium Chloride Mouthrinses. […] Mar. 19-23, 1997.
Cellulose Filter disks (Schleicher and Schuell #740-E)
24-well culture plate (Corning 3526)
Vacuum pulled filtration system
0.1% Acid Fuschin dye solution (w/v)
20% p-toluenesulfonic acid solution (w/v)
Spectrophotometer (Molecular Devices—SpectraMAX 190)
10. […] Vortexed solution.
12. Read absorbance spectrophotometrically at 545 nm.

[2] = described in JP 57-165305; cited from earlier work
[3] = tested on: Escherichia, Pseudomonas aeruginosa, Proteus vulgarus, Staphylococcus aureus, Bacillus substilis, Candida albicans and Aspergillus niger; conditions: disclosed in GB 1352420; cited from earlier work

Substance | BA ± SE with LAE [1] | BA ± SE without LAE [1] | Impact of surfactant on LAE bioavailability [1] | bacteriocidal activity [2] | bactericidal activity [3]
Cocamidopropyl Betaine | 86.1 ± 2.8% | 27.6 ± 15.0% | did not negatively impact bioavailability |  | 
N^α-cocoyl-L-arginine ethyl ester pyrrolidone carboxylate |  |  |  | weak bacteriocidal activity | bactericidal activity
N^α-cocoyl-L-arginine methyl ester pyrrolidone carboxylate |  |  |  |  | bactericidal activity
Poloxamer 407 | 35.9 ± 5.2% |  |  |  | 
